Experimental data as given in US9145415B2, “Nitrogen-containing heterocyclic compound or salt thereof” (FUJIFILM Corporation, priority 2012, dated 2015).
Read-outs that look alike come from different tables or passages of the source.

How the values were obtained:
Molm-13 cells = experiment: Leukemia cell proliferation inhibition test (ATPlite), Molm-13; type: cell-based; conditions: Homo sapiens, read-out: MOLM13 cell proliferation inhibition effect
Method: (§1) A leukemia cell proliferation inhibition test was performed for the compounds of the present invention by using the leukemia cell strains MV4-11 (ATCC Number, CRL-9591) and Molm-13 (DSMZ Number, ACC554).
(§2) The leukemia cell proliferation inhibition test was performed by the method described below.
(§3) For the purpose of measuring proliferation inhibition attained with a compound, the total cell count was quantified on the basis of the total cellular ATP concentration using the ATPlite (PerkinElmer) reagent utilizing firefly luciferase. The Molm-13 or MV4-11 cells were added to the RPMI medium containing penicillin and streptomycin (penn/strep) and 10% FBS at a density of 2×10^5 cells/ml, and 50 μL (10,000 cells) of the cell suspension was inoculated to each well of a 96-well plate (Corning).
(§4) A serially diluted solution of a compound or 0.1% DMSO (solvent control) in a volume of 50 μL was added to the cells, and then the cells were cultured for 72 hours under the standard cell proliferation conditions (37° C., 5% CO2) to allow proliferation of the cells. In order to measure the proliferation of the total cells, equal volume of the ATPlite reaction mixture was added to each well in accordance with the instructions attached to ATPlite, and then luminescence count of the well was measured (relative light unit, RLU).
(§5) The RLU signal observed with the DMSO solvent control after 72 hours of the culture was defined as a signal indicating 0% inhibition, and the GI50 value for the proliferation inhibition corresponds to a concentration of a compound that provides 50% inhibition based on the proliferation of the total cells contained in the DMSO solvent control. Each data point was obtained from samples in duplicate. The GI50 values were calculated by the non-linear regression fitting (Fit Model (205)) according to a sigmoid dose-reaction equation using the XLfit software.

MV4-11 cells = experiment: Leukemia cell proliferation inhibition test (ATPlite), MV4-11; type: cell-based; conditions: Homo sapiens, read-out: MV4-11 cell proliferation inhibition effect
Method: as §1, §2, §3, §4, §5

[1] = biological target: T1, human FLT3 protein (FLT3 (WT)) (Homo sapiens, UniProt P36888); experiment: FLT3 inhibition test (FLT3 enzyme inhibition, time-resolved fluorescence of substrate peptide phosphorylation); type: biochemical; conditions: read-out: FLT3 (WT) enzyme inhibition activity
T1 construct: human FLT3 protein (intracellular region, 564 to 993 aa); GST; purchased Carna Biosciences; host or cells: baculovirus expression system
T1 sequence (P36888 564-993): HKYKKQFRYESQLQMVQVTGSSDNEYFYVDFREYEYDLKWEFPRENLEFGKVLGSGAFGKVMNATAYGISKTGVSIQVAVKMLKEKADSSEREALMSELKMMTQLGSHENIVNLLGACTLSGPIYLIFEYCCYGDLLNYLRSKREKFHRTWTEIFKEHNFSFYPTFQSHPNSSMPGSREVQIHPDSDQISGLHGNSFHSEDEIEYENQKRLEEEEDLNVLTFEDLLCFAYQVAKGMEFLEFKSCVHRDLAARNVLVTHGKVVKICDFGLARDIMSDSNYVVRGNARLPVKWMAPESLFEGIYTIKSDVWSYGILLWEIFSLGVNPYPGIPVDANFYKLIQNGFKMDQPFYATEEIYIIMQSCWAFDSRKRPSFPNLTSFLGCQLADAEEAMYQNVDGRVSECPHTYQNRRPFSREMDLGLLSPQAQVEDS
Method: The FLT3 inhibition test was performed for the compounds of the present invention by the method described below.
A reaction mixture in a volume of 9 μL containing the FLT3 protein and a test compound of a predetermined concentration (1.2 μg of FLT3, 100 mM HEPES, 10 mM MgCl2, 25 mM NaCl, 0.01% BSA, 1 mM DTT, pH 7.5) was left standing at 25° C. for 15 minutes. […] (Toray Industries), and 3 μL (final concentration 50 μM) of ATP (Sigma-Aldrich) were added to the reaction mixture, and the mixture was shaken for 2 minutes, and then further left standing at 25° C. for 30 minutes to allow the enzymatic reaction.

[2] = MOLM-13, 72 h, Molm-13, 72 hours culture, ATPlite, GI50 per method
[3] = MV4-11, 72 h, MV4-11, 72 hours culture, ATPlite, GI50 per method
[4] = GST-fused human FLT3 (564 to 993 aa), ATP 50 μM

Row | Structure (SMILES) | IC50 (Molm-13 cells; [2]) [nM] | IC50 (MV4-11 cells; [3]) [nM] | IC50 [1, 4] [nM] | IC50 (Molm-13 cells; MOLM-13, MOLM13 cell) [nM] | IC50 (MV4-11 cells; MV4-11, MV4-11 cell) [nM] | IC50 ([1]; FLT3 (WT)) [nM]
1 | CCCNc1nc(Nc2ccnc(F)c2)ncc1C#CCCCNC(=O)[C@H](CC)N(C)C(=O)/C=C/CN(C)C [Compound 9-18] | < 10 | < 10 | < 10 | – | – | –
2 | CCCNc1nc(Nc2ccc(C(N)=O)cc2)ncc1C(=O)NCCCNC(=O)CN(C)C(=O)/C=C/CN(C)C [Compound 5-5] | 10 to 100 | 10 to 100 | < 10 | – | – | –
3 | C[C@@H](C(=O)NCCCC#Cc1cnc(Nc2ccc(C(N)=O)cc2)nc1N1CCCC1)N(C)C(=O)/C=C/CN(C)C [Compound 9-7] | < 10 | < 10 | < 10 | – | – | –
4 | CNc1nc(Nc2ccc3c(F)nn(C)c3c2)ncc1C#CCCCNC(=O)[C@H](C)N(C)C(=O)/C=C/CN(C)C [Compound 21-50] | – | – | – | < 10 | < 10 | < 10
5 | CCCNc1nc(NCCc2ccncc2)ncc1C(=O)Nc1cccc(NC(=O)CNC(=O)/C=C/CN(C)C)c1 [Compound 2-9] | < 10 | < 10 | < 10 | – | – | –
6 | CCNc1nc(Nc2ccc3c(cnn3C)c2)ncc1C#CCCCNC(=O)[C@H](C)N(C)C(=O)/C=C/CN(C)C [Compound 10-53] | < 10 | < 10 | < 10 | – | – | –
7 | CC[C@@H](C(=O)NCCCC#Cc1cnc(Nc2ccc(F)nc2)nc1Nc1ccc(OC)cc1)N(C)C(=O)/C=C/CN(C)C [Compound 10-37] | < 10 | < 10 | < 10 | – | – | –
8 | CNc1nc(Nc2ccc(C#N)cc2)ncc1C#C[C@H]1C[C@@H](NC(=O)[C@H](C)N(C)C(=O)/C=C/CN(C)C)C1 [Compound 13-14, (E)-N—((S)-1-(((1S,3R)-3-((2-((4-Cyanophenyl)amino)-4-(methylamino)pyrimidin-5-yl)ethynyl)cyclobutyl)amino)-1-oxopropan-2-yl)-4-(dimethylamino)-N-methyl-2-butenamide] | < 10 | < 10 | < 10 | – | – | –
9 | CNc1nc(Nc2ccc(F)cc2)ncc1C#CCCCNC(=O)[C@@H]1C[C@H](OC)CN1C(=O)/C=C/CN(C)C [Compound 7-82] | < 10 | < 10 | < 10 | – | – | –
10 | CCCNc1nc(Nc2cccc(C(F)(F)F)c2)ncc1C#CCCCNC(=O)[C@H](C)N(C)C(=O)/C=C/CN(C)C [Compound 11-11] | 10 to 100 | 10 to 100 | < 10 | – | – | –
11 | CCCNc1nc(Nc2cncc(F)c2)ncc1C#CCCCNC(=O)[C@H](C)N(C)C(=O)/C=C/CN(C)C [Compound 22-8] | – | – | – | 10 to 100 | < 10 | < 10
12 | CCCNc1nc(Nc2cnc3ccc(OC)cc3c2)ncc1C#CCCCNC(=O)[C@H](C)N(C)C(=O)/C=C/CN(C)C [Compound 21-16] | < 10 | < 10 | < 10 | – | – | –
13 | CCCNc1nc(Nc2ccc(C(N)=O)cc2)ncc1C(=O)Nc1cccc(NC2CCCN(C(=O)/C=C/CN(C)C)C2)c1 (stereo not drawn) [Compound 3-19] | 100 to 1000 | 10 to 100 | < 10 | – | – | –
14 | CCNc1nc(Nc2ccc(C#N)cc2)ncc1C#C[C@@H]1CCC[C@H](NC(=O)[C@H](C)N(C)C(=O)/C=C/CN(C)C)C1 [Compound 21-28] | < 10 | < 10 | < 10 | – | – | –
15 | CN(C)C/C=C/C(=O)N1CCC[C@H]1C(=O)NCCCC#Cc1cnc(Nc2ccc3cn[nH]c3c2)nc1NC1CC1 [Compound 10-75] | < 10 | < 10 | < 10 | – | – | –
16 | CCCN(c1nc(Nc2ccnc(F)c2)ncc1C#CCCCNC(=O)[C@H](C)N(C)C(=O)/C=C/CN(C)C)C1CC1 [Compound 9-14] | < 10 | < 10 | < 10 | – | – | –
17 | CCCNc1nc(Nc2ccc(C(N)=O)cc2)ncc1C(=O)NC1CCCC(NC(=O)CNC(=O)/C=C/CN(C)C)C1 (stereo not drawn) [Compound 3-3] | 10 to 100 | 10 to 100 | < 10 | – | – | –
18 | CCCNc1nc(Nc2ccc(C(N)=O)cc2)ncc1C(=O)Nc1cccc(NC(=O)[C@H](C)NC(=O)/C=C/CN(C)C)c1 [Compound 3-12] | 10 to 100 | 10 to 100 | < 10 | – | – | –
19 | CCCNc1nc(Nc2ccc3c(c2)c(OC)nn3C)ncc1C#CCCCNC(=O)[C@H](C)N(C)C(=O)/C=C/CN(C)C [Compound 22-25] | – | – | – | < 10 | < 10 | < 10
20 | CCCNc1nc(Nc2ccc(C(N)=O)cc2)ncc1C(=O)Nc1ccc(NC(=O)/C=C/CN(C)C)cc1 [Compound 3-6] | > 1000 | 100 to 1000 | < 10 | – | – | –
21 | CCCNc1nc(NCCc2ccncc2)ncc1C(=O)Nc1cccc(NC(=O)CNC(=O)/C=C/CN2CCN(CCO)CC2)c1 [Compound 2-16] | 100 to 1000 | 10 to 100 | < 10 | – | – | –
22 | CNc1nc(Nc2cccc(F)c2)ncc1C#Cc1cccc(NC(=O)CN(C)C(=O)/C=C/CN(C)C)c1 [Compound 8-23] | 10 to 100 | 10 to 100 | < 10 | – | – | –
23 | CCCN(CCC)c1nc(Nc2cccc(F)c2)ncc1C#CCCCNC(=O)[C@H](C)N(C)C(=O)/C=C/CN(C)C [Compound 10-10] | < 10 | < 10 | < 10 | – | – | –
24 | CCCNc1nc(Nc2ccc3scnc3c2)ncc1C#CCCCNC(=O)[C@H](C)N(C)C(=O)/C=C/CN(C)C [Compound 21-15] | 10 to 100 | < 10 | < 10 | – | – | –
25 | C[C@@H](C(=O)N[C@H]1CCC[C@@H](C#Cc2cnc(Nc3ccnc(F)c3)nc2N2CCOCC2)C1)N(C)C(=O)/C=C/CN(C)C [Compound 14-3] | < 10 | < 10 | < 10 | – | – | –
26 | CNc1nc(Nc2ccc(C#N)cc2)ncc1C#C[C@@H]1CCC[C@H](NC(=O)[C@H](C)N(C)C(=O)/C=C/CN(C)C)C1 [Compound 15-5, (E)-N—((S)-1-(((1S,3R)-3-((2-((4-Cyanophenyl)amino)-4-(methylamino)pyrimidin-5-yl)ethynyl)cyclohexyl)amino)-1-oxopropan-2-yl)-4-(dimethylamino)-N-methyl-2-butenamide] | < 10 | < 10 | < 10 | – | – | –
27 | CCCNc1nc(Nc2ccc(C(N)=O)cc2)ncc1C#CCCCNC(C)(C)CNC(=O)/C=C/CN(C)C [Compound 8-10] | 10 to 100 | < 10 | < 10 | – | – | –
28 | CCCNc1nc(Nc2ccc(OC)c(F)c2)ncc1C#CCCCNC(=O)[C@H](C)N(C)C(=O)/C=C/CN(C)C [Compound 7-20, (S,E)-4-(Dimethylamino)-N-(1-((5-(2-((3-fluoro-4-methoxyphenyl)amino)-4-(propylamino)pyrimidin-5-yl)-4-pentyn-1-yl)amino)-1-oxopropan-2-yl)-N-methyl-2-butenamide] | < 10 | < 10 | < 10 | – | – | –
29 | CCCNc1nc(Nc2ccc3cnn(C)c3c2)ncc1C#CCCCNC(=O)[C@@H]1CCCN1C(=O)/C=C/CN(C)C [Compound 22-32] | – | – | – | < 10 | < 10 | < 10
30 | CCCNc1nc(NCCc2ccncc2)ncc1C(=O)Nc1cccc(NC(=O)[C@H](C)N(C)C(=O)/C=C/CN(C)C)c1 [Compound 2-12, (S,E)-N-(3-(2-(4-(Dimethylamino)-N-methyl-2-butenamido)propanamido)phenyl)-4-(propylamino)-2-((2-(pyridin-4-yl)ethyl)amino)pyrimidine-5-carboxamide] | < 10 | < 10 | < 10 | – | – | –
